Assays:
TXN2 = target: T1, TXN2 (Homo sapiens, UniProt Q99757); test: isoTOP-ABPP of compound-treated H460 cells: TXN2; type: cell-based; conditions: TXN2 C90; 40 μM
T1 construct: H460 cells or H460 cells expressing luciferase in a 10 cm plate were incubated with indicated compounds; endogenous in cells; host or cells: H460
Description: For analysis of NR0B1 ligands or control compound reactivity, H460 cells or H460 cells expressing luciferase in a 10 cm plate were incubated with indicated compounds in serum/dye-free RPMI for 3 hours at 37° C. Cells were washed once ice-cold PBS and lysed in 1% Triton X-100 dissolved in PBS with protease inhibitors (Sigma) by sonication. Samples were clarified by centrifugation for 10 min at 16,000×g. Lysate was adjusted to 1.5 mg ml^−1 in 500 μL.
Samples were labeled for 1 h at ambient temperature with 100 μM iodoacetamide alkyne (1, IA-alkyne, 5 μL of 10 mM stock in DMSO). Samples were conjugated by copper-catalyzed azide-alkyne cycloaddition (CuAAC) to isotopically labeled, TEV-cleavable tags (TEV-tags). Heavy CuAAC reaction mixtures was added to the DMSO-treated or shGFP control samples and light CuAAC reaction mixture was added to compound-treated or shNRF2 samples. The CuAAC reaction mixture consisted of TEV tags (light or heavy, 10 μL of 5 mM stocks in DMSO, final concentration=100 μM), 1 mM tris(2-carboxyethyl)phosphine hydrochloride (TCEP; fresh 50× stock in water, final concentration=1 mM), ligand (17× stock in DMSO:t-butanol 1:4, final concentration=100 μM) and 1 mM CuSO4 (50× stock in water, final concentration=1 mM). The samples were allowed to react for 1 h at which point the samples were centrifuged (16,000×g, 5 min, 4° C.). […]

KEAP1-WT NSCLC cells = test: Anchorage-independent growth, KEAP1-WT NSCLC cells; type: cell-based, human; conditions: 5 μM
Text: Based on its in situ activity (FIG. 6D and FIG. 12A, 12G) and selectivity (FIGS. 6A, 6B), BPK-29 was chosen for additional biological studies. […] Exogenous expression of […] the growth inhibition caused by BPK-29.

T1 sequence (Q99757 60-166): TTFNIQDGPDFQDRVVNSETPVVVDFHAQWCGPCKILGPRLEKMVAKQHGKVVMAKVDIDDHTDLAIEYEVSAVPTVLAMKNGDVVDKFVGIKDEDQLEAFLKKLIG

With `O=C(c1ccc(N2CCOCC2)cc1)N1CCCC(N(Cc2ccccc2)C(=O)CCl)CC1` (centres unmarked) [BPK-29, N-benzyl-2-chloro-N-(1-(4-morpholinobenzoyl)azepan-4-yl)acetamide] the “BPK-29-competed isoTOP-ABPP analysis” value (TXN2) was “Yes (Competed defined as showing R value ≥ 3.0 at 40 μM of test compound)” and the anchorage-independent growth (KEAP1-WT NSCLC cells) was “minimally affected”.

— US20200278355A1, “CONJUGATED PROTEINS AND USES THEREOF” (THE SCRIPPS RESEARCH INSTITUTE, priority 2017, published 2020)
